pEC50: −log10 of the molar value.
What was measured:
HT22 neuronal cells [1] = conditions: for effect on cell death of HT22 neuronal cells induced by glutamate: glutamate at 10 mM, FIG. 1
Description: The HT22 neuronal cells (mouse hippocampus neuronal line) were treated for two hours with 50 μM of pigment, followed or not by the addition of 10 mM glutamate for 24 hours at 37° C. Cell viability (in %) was measured by an MTS test (by means of a CellTiter 96®Aqueous non-Radioactive Cell Proliferation Assay kit from Promega).
The HT22 cells were treated for 2 hours either with diadinoxanthin (FIG. 2) or violaxanthin (FIG. 3) or diatoxanthin (comparative test shown in FIG. 4) at different concentrations. For each of the concentrations, cell death was then induced by glutamate (10 mM) for 24 hours at 37° C. Cell viability (in %) was measured by an MTS test. The values shown are the mean±standard deviation (n=3).
The EC50 (half maximal effective concentration) is the concentration at which a molecule induces a response halfway between the baseline and the maximum effect after a certain exposure time thereof. This determines its efficacy.

HT22 neuronal cells [2] = test: Toxicity of pigment alone on HT22 neuronal cells (MTS cell viability); assay type: cell-based, mouse; conditions: 50 μM pigment, no glutamate; FIG. 1 white rectangles

| SMILES | effect on cell death of HT22 neuronal cells induced by glutamate (HT22 neuronal cells [1]) | pEC50 (HT22 neuronal cells [1]; read-out: EC50 (half maximal effective concentration), dose-response, 2 hours pre-treatment, then glutamate 10 mM for 24 hours at 37° C., FIG. 2, FIG. 3) | toxicity of pigment alone (cell viability) (HT22 neuronal cells [2]) |
| --- | --- | --- | --- |
| CC1=C(C#C/C(C)=C/C=C/C(C)=C/C=C/C=C(C)/C=C/C=C(C)/C=C/[C@@]23O[C@]2(C)C[C@@H](O)CC3(C)C)C(C)(C)C[C@H](O)C1 [diadinoxanthin] | protective effect | 4.66 | non-toxic |
| CC(/C=C/C=C(C)/C=C/[C@@]12O[C@]1(C)C[C@@H](O)CC2(C)C)=C\C=C\C=C(C)\C=C\C=C(C)\C=C\[C@@]12O[C@]1(C)C[C@@H](O)CC2(C)C [violaxanthin] | protective effect | – | non-toxic |

Reference: patent US12491175B2, “Composition containing carotenoids and use thereof for protecting neurons against neurodegeneration” (priority 2019, dated 2025)
